{
  "source": "patent US11099176B2",
  "about": "(priority 2015, dated 2021)",
  "assay_type_in_all_cases": "binding",
  "key": {"[1]": {"system": "Marinobacter sp. msLacBP6 variant 187C, F68M, SEQ ID NO: 50, Acrylodan conjugate", "test": "Fluorescence titration of conjugate (affinity tuning)", "parameters": "key to appKd (alanine): nb: no binding"}, "[2]": {"system": "Marinobacter sp. msLacBP6 variant 187C, F68M, SEQ ID NO: 50, Badan conjugate", "test": "Fluorescence titration of conjugate (affinity tuning)", "parameters": "key to appKd (alanine): nb: no binding"}, "[3]": {"system": "Marinobacter sp. msLacBP6 variant 187C, F68L, SEQ ID NO: 49, Acrylodan conjugate", "test": "Fluorescence titration of conjugate (affinity tuning)", "parameters": "key to appKd (alanine): nb: no binding"}, "[4]": {"system": "Marinobacter sp. msLacBP6 variant 187C, F68L, SEQ ID NO: 49, Badan conjugate", "test": "Fluorescence titration of conjugate (affinity tuning)", "parameters": "key to appKd (alanine): nb: no binding"}, "[5]": {"system": "Marinobacter sp. msLacBP6 variant 187C, L70I, SEQ ID NO: 52, Acrylodan conjugate", "test": "Fluorescence titration of conjugate (affinity tuning)", "parameters": "key to appKd (alanine): nb: no binding"}, "[6]": {"system": "Marinobacter sp. msLacBP6 variant 187C, L70I, SEQ ID NO: 52, Badan conjugate", "test": "Fluorescence titration of conjugate (affinity tuning)", "parameters": "key to appKd (alanine): nb: no binding"}, "[7]": {"system": "Marinobacter sp. msLacBP6 variant 187C, D220E, SEQ ID NO: 56, Acrylodan conjugate", "test": "Fluorescence titration of conjugate (affinity tuning)", "parameters": "key to appKd (alanine): nb: no binding"}, "[8]": {"system": "Marinobacter sp. msLacBP6 variant 187C, D220E, SEQ ID NO: 56, Badan conjugate", "test": "Fluorescence titration of conjugate (affinity tuning)", "parameters": "key to appKd (alanine): nb: no binding"}, "[9]": {"system": "Marinobacter sp. msLacBP6 conjugates (variants of Table 5)", "test": "Affinity summary of msLacBP6 single-cysteine conjugates"}, "[10]": {"system": "Marinobacter sp. msLacBP6 187C mutants (variants of Table 7)", "test": "Affinity summary of msLacBP6 187C affinity-tuning mutants", "conditions": "all mutants", "excerpt": "In the PCS we mutated F68 (F98 in ttLacBP1) and D220 (D250 in ttLacBP1). […] It could therefore be considered part of a secondary complementary surface layer (SCS). In the interface we mutated L70 (L100 in ttLacBP1), which is located at the periphery of the lactate-binding site, and forms a contact from the N- to the C-terminal domain across the inter-domain interface.\nBoth PCS and SCS mutations perturbed the spectral shapes of the lactate-mediated responses. […] These affinity-tuned sensors therefore provide a suitable set for clinical chemistry applications."}},
  "data": [
    {"smiles": "C[C@H](N)C(=O)O", "note": "[L-alanine]", "values": [
      {"measurement": "appKd (alanine)", "setting": "[1]", "result": "n/b"},
      {"measurement": "appKd (alanine)", "setting": "[2]", "result": "n/b"},
      {"measurement": "appKd (alanine)", "setting": "[3]", "result": "n/b"},
      {"measurement": "appKd (alanine)", "setting": "[4]", "result": "n/b"},
      {"measurement": "appKd (alanine)", "setting": "[5]", "result": "n/b"},
      {"measurement": "appKd (alanine)", "setting": "[6]", "result": "n/b"},
      {"measurement": "appKd (alanine)", "setting": "[7]", "result": "n/b"},
      {"measurement": "appKd (alanine)", "setting": "[8]", "result": "n/b"},
      {"measurement": "binding to L-alanine", "setting": "[9]", "result": "no binding"},
      {"measurement": "binding to L-alanine", "setting": "[10]", "result": "None of the mutants bound L-alanine"}
    ]}
  ]
}
